Test: accelerated storage stability at 40° C. and 75% relative humidity (active ingredient content)

N[C@@H](Cc1cc(I)c(Oc2cc(I)c(O)c(I)c2)c(I)c1)C(=O)[O-].[Na+] [Levothyroxine-Na]
activity of the original quantity (160 μg levothyroxine-Na preparation, water factor 0.3, 40° C. and 75% relative humidity, 3 months): 95.2 % by weight
residual activity (160 μg levothyroxine-Na preparation, water factors 0.4 to 0.5, 40° C. and 75% relative humidity, 3 months): 90.7 % by weight

N[C@@H](Cc1cc(I)c(Oc2ccc(O)c(I)c2)c(I)c1)C(=O)[O-].[Na+] [liothyronine-Na]
employed quantity still active (combination preparation containing 25 μg liothyronine-Na, water factor 0.25, one month): 97.7 % by weight
content remaining (combination preparation containing 25 μg liothyronine-Na, water factor 0.4 to 0.5, 1 month): 87.2%

Reference: patent publication US8293272B2, “Solid pharmaceutical preparation containing levothyroxine and/or liothyronine salts” (Globopharm Pharmazeutische Produktions-und …, priority 2003, dated 2012)
